Laboratory results taken from patent US10160747B2, “Compounds and methods for kinase modulation, and indications therefor” (Plexxikon Inc., priority 2016, dated 2018).

What was measured:
[1] = tested on: MOLM-14 D835Y (endogenous FLT3 ITD and transfected FLT3 D835Y); experiment: MOLM-14 D835Y cell proliferation assay (CellTiter-Glo); assay type: cell-based; settings: Homo sapiens, MOLM-14, 72 h; 3 d growth, GMean
How it was run: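 MOLM-14 cells (FLT3 ITD) carrying D835Y or F691L, 1×10^4 cells/well, eight 1:3 dilutions from 1 μM final, 0.2% DMSO, 3 days at 37 °C, 5% CO2. Viability by CellTiter-Glo luminescence (ATP content); IC50 from concentration-response.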

BA/F3-FLT3-ITD + D835Y = target: T1, BA/F3-FLT3-ITD + D835Y (Homo sapiens, UniProt P36888, D835Y, cells depend on it, form not given); experiment: Engineered BA/F3 cell growth assay, FLT3 ITD/D835Y; assay type: cell-based, murine; settings: 3 d growth
T1 sequence (P36888 with tags, fused parts or gaps INS600HVDFREYEYD/D835Y): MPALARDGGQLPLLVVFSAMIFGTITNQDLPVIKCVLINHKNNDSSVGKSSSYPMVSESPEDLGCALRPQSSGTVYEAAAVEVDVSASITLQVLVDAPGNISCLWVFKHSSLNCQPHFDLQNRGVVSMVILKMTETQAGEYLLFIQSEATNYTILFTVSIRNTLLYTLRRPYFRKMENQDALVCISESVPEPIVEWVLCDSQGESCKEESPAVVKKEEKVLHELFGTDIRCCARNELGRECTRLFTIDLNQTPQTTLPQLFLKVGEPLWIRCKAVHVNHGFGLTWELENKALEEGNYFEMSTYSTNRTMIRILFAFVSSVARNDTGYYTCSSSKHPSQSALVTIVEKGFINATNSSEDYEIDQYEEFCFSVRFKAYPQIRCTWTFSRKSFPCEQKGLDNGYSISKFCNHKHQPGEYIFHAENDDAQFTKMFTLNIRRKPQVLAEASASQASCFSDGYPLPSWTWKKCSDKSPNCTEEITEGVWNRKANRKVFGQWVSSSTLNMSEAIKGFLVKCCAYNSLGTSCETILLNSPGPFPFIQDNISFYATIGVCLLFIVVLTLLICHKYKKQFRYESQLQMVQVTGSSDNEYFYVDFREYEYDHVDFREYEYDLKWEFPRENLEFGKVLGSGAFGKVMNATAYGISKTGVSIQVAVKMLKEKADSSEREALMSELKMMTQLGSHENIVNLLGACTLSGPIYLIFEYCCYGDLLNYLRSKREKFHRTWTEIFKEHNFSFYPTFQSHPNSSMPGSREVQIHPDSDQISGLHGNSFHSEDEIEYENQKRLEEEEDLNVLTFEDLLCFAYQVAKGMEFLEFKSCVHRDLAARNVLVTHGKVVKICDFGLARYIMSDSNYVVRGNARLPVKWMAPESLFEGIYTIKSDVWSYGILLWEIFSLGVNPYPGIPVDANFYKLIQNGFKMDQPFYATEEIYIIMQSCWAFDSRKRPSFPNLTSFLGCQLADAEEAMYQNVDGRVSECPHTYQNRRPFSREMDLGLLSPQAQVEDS
How it was run: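 IC50 derived from CellTiter-Glo ATP luminescence after 3 days at 37 °C, 5% CO2, over eight 1:3 dilutions from 1 μM (0.2% DMSO final). Cells: IL-3-independent murine Ba/F3 expressing full-length FLT3 ITD/D835Y, 1×10^4 per well.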

| SMILES | IC50 [1] [µM] | GI50 (BA/F3-FLT3-ITD + D835Y) [µM] |
| --- | --- | --- |
| Cn1cnc(Nc2ncc(-c3ccc(CC(=O)Nc4cc(C(F)(F)F)ccn4)cc3F)cn2)c1 [Compound P-0018, 2-[3-fluoro-4-[2-[(1-methylimidazol-4-yl)amino]pyrimidin-5-yl]phenyl]-N-[4-(trifluoromethyl)-2-pyridyl]acetamide] | 0.0001 to 10 | 0.0001 to 10 |
| COCCn1cc(Nc2ncc(-c3ccc(CC(=O)Nc4cnc(Cl)c(C(F)(F)F)c4)c(F)c3)cn2)cn1 [Compound P-0266, N-[6-chloro-5-(trifluoromethyl)-3-pyridyl]-2-[2-fluoro-4-[2-[[1-(2-methoxyethyl)pyrazol-4-yl]amino]pyrimidin-5-yl]phenyl]acetamide] | 0.0001 to 10 | 0.0001 to 10 |
| O=C(Cc1ccc(-c2cnc(Nc3cnn(C(F)F)c3)nc2)cc1)Nc1cncc(C(F)(F)F)c1 [Compound P-0209, 2-[4-[2-[[1-(difluoromethyl)pyrazol-4-yl]amino]pyrimidin-5-yl]phenyl]-N-[5-(trifluoromethyl)-3-pyridyl]acetamide] | 0.0001 to 10 | 0.0001 to 10 |
| CCn1cc(Nc2ncc(-c3ccc(CC(=O)Nc4cnc(Cl)c(C(F)(F)F)c4)c(F)c3)cn2)cn1 [Compound P-0260, N-[6-chloro-5-(trifluoromethyl)-3-pyridyl]-2-[4-[2-[(1-ethylpyrazol-4-yl)amino]pyrimidin-5-yl]-2-fluoro-phenyl]acetamide] | 0.0001 to 10 | 0.0001 to 10 |
| Cn1cc(Nc2ncc(-c3ccc(CC(=O)Nc4cc(C(F)(F)F)ccn4)cc3F)cn2)cn1 [Compound P-0017, 2-[3-fluoro-4-[2-[(1-methylpyrazol-4-yl)amino]pyrimidin-5-yl]phenyl]-N-[4-(trifluoromethyl)-2-pyridyl]acetamide] | 0.0001 to 10 | 0.0001 to 10 |
| O=C(Cc1ccc(-c2cnc(Nc3cnn(C4CC4)c3)nc2)cc1F)Nc1ccc(C(F)(F)F)cn1 [Compound P-0243, 2-[4-[2-[(1-cyclopropylpyrazol-4-yl)amino]pyrimidin-5-yl]-2-fluoro-phenyl]-N-[5-(trifluoromethyl)-2-pyridyl]acetamide] | 0.0001 to 10 | 0.0001 to 10 |
| COCCn1cc(Nc2ncc(-c3ccc(CC(=O)Nc4ccc(C(F)(F)F)nc4)cc3)cn2)cn1 [Compound P-0273, 2-[4-[2-[[1-(2-methoxyethyl)pyrazol-4-yl]amino]pyrimidin-5-yl]phenyl]-N-[6-(trifluoromethyl)-3-pyridyl]acetamide] | 0.0001 to 10 | 0.0001 to 10 |
| O=C(Cc1ccc(-c2cnc(Nc3cnn(C4CC4)c3)nc2)cc1F)Nc1cnc(Cl)c(C(F)(F)F)c1 [Compound P-0240, N-[6-chloro-5-(trifluoromethyl)-3-pyridyl]-2-[4-[2-[(1-cyclopropylpyrazol-4-yl)amino]pyrimidin-5-yl]-2-fluoro-phenyl]acetamide] | 0.0001 to 10 | 0.0001 to 10 |
| CCn1cc(Nc2ncc(-c3ccc(CC(=O)Nc4ccc(C(F)(F)F)cn4)c(F)c3)cn2)cn1 [Compound P-0256, 2-[4-[2-[(1-ethylpyrazol-4-yl)amino]pyrimidin-5-yl]-2-fluoro-phenyl]-N-[5-(trifluoromethyl)-2-pyridyl]acetamide] | 0.0001 to 10 | 0.0001 to 10 |
| O=C(Cc1cc(F)c(-c2cnc(Nc3cnn(C(F)F)c3)nc2)cc1F)Nc1cc(C(F)(F)F)ccn1 [Compound P-0021, 2-[4-[2-[[1-(difluoromethyl)pyrazol-4-yl]amino]pyrimidin-5-yl]-2,5-difluoro-phenyl]-N-[4-(trifluoromethyl)-2-pyridyl]acetamide] | 0.0001 to 10 | 0.0001 to 10 |
| O=C(Cc1ccc(-c2cnc(Nc3cnn(C(F)F)c3)nc2)cc1)Nc1cc(C(F)(F)F)ccn1 [Compound P-0023, 2-[4-[2-[[1-(difluoromethyl)pyrazol-4-yl]amino]pyrimidin-5-yl]phenyl]-N-[4-(trifluoromethyl)-2-pyridyl]acetamide] | 0.0001 to 10 | 0.0001 to 10 |
| COCCn1cc(Nc2ncc(-c3ccc(CC(=O)Nc4cc(C(F)(F)F)ccn4)c(F)c3)cn2)cn1 [Compound P-0270, 2-[2-fluoro-4-[2-[[1-(2-methoxyethyl)pyrazol-4-yl]amino]pyrimidin-5-yl]phenyl]-N-[4-(trifluoromethyl)-2-pyridyl]acetamide] | 0.0001 to 10 | 0.0001 to 10 |
| Cc1nn(C)cc1Nc1ncc(-c2ccc(CC(=O)Nc3cnc(C)c(C(F)(F)F)c3)cc2)cn1 [Compound P-0228, 2-[4-[2-[(1,3-dimethylpyrazol-4-yl)amino]pyrimidin-5-yl]phenyl]-N-[6-methyl-5-(trifluoromethyl)-3-pyridyl]acetamide] | 0.0001 to 10 | 0.0001 to 10 |
| COc1ncc(NC(=O)Cc2ccc(-c3cnc4[nH]nc(C5CC5)c4c3)cc2F)cc1C(F)(F)F [Compound P-0262, 2-[4-(3-cyclopropyl-1H-pyrazolo[3,4-b]pyridin-5-yl)-2-fluoro-phenyl]-N-[6-methoxy-5-(trifluoromethyl)-3-pyridyl]acetamide] | 0.0001 to 10 | 0.0001 to 10 |
| COCCn1cc(Nc2ncc(-c3ccc(CC(=O)Nc4ccc(C(F)(F)F)cn4)c(F)c3)cn2)cn1 [Compound P-0269, 2-[2-fluoro-4-[2-[[1-(2-methoxyethyl)pyrazol-4-yl]amino]pyrimidin-5-yl]phenyl]-N-[5-(trifluoromethyl)-2-pyridyl]acetamide] | 0.0001 to 10 | 0.0001 to 10 |

Continued, values first:

| IC50 [1] [µM] | GI50 (BA/F3-FLT3-ITD + D835Y) [µM] | SMILES |
| --- | --- | --- |
| 0.0001 to 10 | 0.0001 to 10 | Cc1ncc(NC(=O)Cc2ccc(-c3cnc4[nH]c(C#CC(C)(C)O)cc4c3)cc2)cc1C(F)(F)F [Compound P-0220, 2-[4-[2-(3-hydroxy-3-methyl-but-1-ynyl)-1H-pyrrolo[2,3-b]pyridin-5-yl]phenyl]-N-[6-methyl-5-(trifluoromethyl)-3-pyridyl]acetamide] |
| 0.0001 to 10 | 0.0001 to 10 | COc1ncc(NC(=O)Cc2ccc(-c3cnc4[nH]nc(N)c4c3)cc2)cc1C(F)(F)F [Compound P-0216, 2-(4-(3-amino-1H-pyrazolo[3,4-b]pyridin-5-yl)phenyl)-N-(6-methoxy-5-(trifluoromethyl)pyridin-3-yl)acetamide] |
| 0.0001 to 10 | 0.0001 to 10 | COc1ncc(NC(=O)Cc2ccc(-c3cnc4[nH]nc(NC(=O)C(F)(F)F)c4c3)cc2)cc1C(F)(F)F [Compound P-0215, 2,2,2-trifluoro-N-[5-[4-[2-[[6-methoxy-5-(trifluoromethyl)-3-pyridyl]amino]-2-oxo-ethyl]phenyl]-1H-pyrazolo[3,4-b]pyridin-3-yl]acetamide] |
| 0.0001 to 10 | 0.0001 to 10 | COc1ncc(NC(=O)Cc2ccc(-c3cnc4[nH]nc(Cl)c4c3)cc2)cc1C(F)(F)F [Compound P-0230, 2-[4-(3-chloro-1H-pyrazolo[3,4-b]pyridin-5-yl)phenyl]-N-[6-methoxy-5-(trifluoromethyl)-3-pyridyl]acetamide] |
| 0.0001 to 10 | 0.0001 to 10 | CCOc1n[nH]c2ncc(-c3ccc(CC(=O)Nc4cnc(OC)c(C(F)(F)F)c4)cc3)cc12 [Compound P-0213, 2-(4-(3-ethoxy-1H-pyrazolo[3,4-b]pyridin-5-yl)phenyl)-N-(6-methoxy-5-(trifluoromethyl)pyridin-3-yl)acetamide] |
| 0.0001 to 10 | 0.0001 to 10 | CCn1cc(Nc2ncc(-c3ccc(CC(=O)Nc4cnc(OC)c(C(F)(F)F)c4)cc3F)cn2)cn1 [Compound P-0246, 2-[4-[2-[(1-ethylpyrazol-4-yl)amino]pyrimidin-5-yl]-3-fluoro-phenyl]-N-[6-methoxy-5-(trifluoromethyl)-3-pyridyl]acetamide] |
| 0.0001 to 10 | 0.0001 to 10 | COc1ncc(NC(=O)Cc2ccc(-c3cnc4[nH]c(-c5ccc(C#N)nc5)cc4c3)c(F)c2)cc1C(F)(F)F [Compound P-0014, 2-[4-[2-(6-cyano-3-pyridyl)-1H-pyrrolo[2,3-b]pyridin-5-yl]-3-fluoro-phenyl]-N-[6-methoxy-5-(trifluoromethyl)-3-pyridyl]acetamide] |
| 0.0001 to 10 | 0.0001 to 10 | COc1n[nH]c2ncc(-c3ccc(CC(=O)Nc4cnc(C)c(C(F)(F)F)c4)cc3)cc12 [Compound P-0218, 2-[4-(3-methoxy-1H-pyrazolo[3,4-b]pyridin-5-yl)phenyl]-N-[6-methyl-5-(trifluoromethyl)-3-pyridyl]acetamide] |
